One may read the IC50 as the concentration needed to halve the response being measured. As a reminder, the EC50 is the concentration that produces a half-maximal response.

Read-outs that look alike come from different tables or passages of the source.

The values below come from patent US11969425B2, “Inhibitor of indoleamine-2,3-dioxygenase (IDO)” (InventisBio LLC, priority 2016, dated 2024).

In one series the test system is pooled human hepatocytes. Nature of the series: Human hepatocyte clearance study. Format: in vitro ADME. On the procedure:
(§1) The in vitro human hepatocyte clearance of compounds described here was studied using pooled human hepatocytes purchased from BioreclamationIVT (Westbury, NY, Cat #X008001, Lot #TQJ). The assay was conducted according to manufacture's instruction. Briefly, 10 mM stock solutions of test compounds and positive control (Verapamil) were prepared in 100% DMSO. Thawing media (50 mL) used in the study consists of: 31 mLWilliams E medium (GIBCO Cat #12551-032); 15 mL isotonic percoll (GE Healthcare Cat #17-0891-09); 500 uL 100XGlutaMax (GIBCO Cat #35050); 750 uL HEPES (GIBCO Cat #15630-080); 2.5 mL FBS (Corning Cat #35-076*CVR); 50 uL human insulin (GIBCO Cat #12585-014) and 5 uL dexamethasone (NICPBP). Incubation media is made of Williams E medium supplemented with 1xGlutaMax. Both thawing medium and incubation medium (serum-free) were placed in a 37° C. water bath for at least 15 minutes prior to use. Compound stock solutions were diluted to 100 μM by combining 198 μL of 50% acetonitrile/50% water and 2 μL of 10 mM stock solution. Verapamil was use as positive control in the assay. Vials of cryopreserved hepatocytes were removed from storage and thawed in a 37° C. water bath with gentle shaking. Contents of the vial were poured into the 50 mL thawing medium conical tube. Vials were centrifuged at 100 g for 10 minutes at room temperature. Thawing medium was aspirated and hepatocytes were re-suspended with serum-free incubation medium to yield ˜1.5×10^6 cells/mL. Hepatocyte viability and density were counted using a Trypan Blue exclusion, and then cells were diluted with serum-free incubation medium to a working cell density of 0.5×10^6 viable cells/mL. Then, a portion of the hepatocytes at 0.5×10^6 viable cells/mL was boiled for 5 minutes prior to adding to the plate as negative control to eliminate the enzymatic activity so that little or no substrate turnover should be observed. The boiled hepatocytes were used to prepare negative samples. Aliquots of 198 μL hepatocytes were dispensed into each well of a 96-well non-coated plate. The plate was placed in the incubator on an orbital shaker at 500 rpm for approximately 10 minutes. Aliquots of 2 μL of the 100 μM test compound or positive control were added into respective wells of the non-coated 96-well plate to start the reaction. This assay was performed in duplicate. The plate was incubated in the incubator on an orbital shaker at 500 rpm for the designated time points. Twenty-five microliter of contents were transferred and mixed with 6 volumes (150 μL) of cold acetonitrile with IS (200 nM imipramine, 200 nM labetalol and 200 nM diclofenac) to terminate the reaction at time points of 0, 15, 30, 60, 90 and 120 minutes. Samples were centrifuged at 3,220 g for 25 minutes and aliquots of 150 μL of the supernatants were used for LC-MS/MS analysis. For data analysis, all calculations were carried out using Microsoft Excel. Peak areas were determined from extracted ion chromatograms. The in vitro half-life (t1/2) of parent compound was determined by regression analysis of the percent parent disappearance vs. time curve. The in vitro half-life (in vitro t1/2) was determined from the slope value: in vitro t1/2=0.693/k. […] Scaling factors for in vivo intrinsic clearance prediction using human hepatocytes are listed as: liver weight (g liver/kg body weight): 25.7; hepatocyte concentration (10^6 cells/g liver): 99; scaling factor: 2544.3.

Series [1] can be described thus: Human hepatocyte clearance study. Format: in vitro ADME. The settings on record: pooled cryopreserved human hepatocytes (suspension); for CLint scaled at 1 µM: human, scaled up from in vitro t1/2, scaling factor 2544.3, read-out: Human Scale-up Clint; for hepatocyte CLint at 1 µM / half-life at 1 µM: pooled human hepatocytes; for hepatocyte CLint at 1 µM: read-out: Human In vitro Clint (μL/min/10^6 cells); for half-life at 1 µM: read-out: Human In vitro T1/2. On the procedure: as §1

Series [2] concerns kynurenine production in SKOV-3 cells. Put plainly: Inhibition of kynurenine production in SKOV-3 cells. Format: cell-based, human. Here is the method: The effect of compounds described herein on the inhibition of kynurenine production in HeLa cells (derived from human cervical cancer) was determined. HeLa cells were seeded into a 96-well culture plate at a density of 5×10^3 per well in RPMI1640/phenol red free media (from GIBCO) with 2 mM L-glutamine and 10% fetal bovine serum (FBS, from GIBCO) and grown overnight in a 37° C. incubator with 5% CO2. Twenty-four hours later, human IFN-γ (from GIBCO) (final concentration 50 ng/mL) and test compound solutions (serially diluted to different wells) were added to each well with a final volume of 200 uL per well. Forty-eight hours after incubation with compounds, 140 uL supernatant was taken from each well and was transferred to a new 96-well plate. Ten microliters of 6.1 N trichloroacetic acid were added into each well, mixed and incubated at 50° C. for 30 minutes. […] The yellow color derived from kynurenine was measured at 480 nm using a SPECTRAmax i3 reader. Each compound concentration was done in triplicates and compound IC50 value was calculated using nonlinear regression using Graphpad Prism 5.0.
The effect of compounds described herein on the inhibition of kynurenine production in SKOV-3 cells (derived from human ovarian cancer) was determined using a similar experimental procedure as described in Example A. Exemplary results are shown in FIG. 1. […]

Series [3] relates to kynurenine production in HeLa cells. Nature of the series: Inhibition of kynurenine production in HeLa cells. Format: cell-based, human. The note with it: 48 h, HeLa cells, human IFN-γ 50 ng/mL, kynurenine read at 480 nm, read-out: IC50.
Series [4] has as its system LPS-induced plasma kynurenine. Put plainly: Inhibition of LPS induced plasma kynurenine in mice. Format: in vivo. The note with it: Balb/c mouse, 5 mg/kg LPS i.p. plus oral 30 mpk. On the procedure: The effect of compounds described herein on the inhibition of lipopolysaccharide (LPS)-induced plasma kynurenine in mouse was determined. Female Balb/c mouse (˜20 g, obtained from Vital River Laboratory Animal Co. LTD) was treated with either vehicle control (saline) or 5 mg/kg LPS via intraperitoneal injection, followed by an oral dose of 30 mpk compound 9 within 5 minutes of LPS injection. Blood samples (500 uL) were collected into K2EDTA tube via retro-orbital puncture at 12 and 24 hrs (terminal bleeding) after treatment with LPS or LPS plus compound 9. For vehicle control group, plasma samples were collected at 24 hour post dose. Blood samples were put on ice after collection and centrifuged at 4° C. (2000 g, 5 minutes) immediately after collection to obtain the plasma. Plasma kynurenine level was determined by LC-MS/MS analysis. Each group contains 3 mice and mean plasma kynurenine level was plotted in FIG. 2.

Series [5] deals with T cells and HeLa cells co-culture. Put plainly: T cells and HeLa cells co-culture assay (IFN-gamma production). Format: cell-based, human. The settings on record: CD3 T cells + HeLa cells, 72 hr, FIG. 4, read-out: EC50, production of IFN-gamma in the T cells and HeLa cells co-culture media. On the procedure:
HeLa cells were seeded into 96-well plate (5000 cells per well in 100 μL of cell growth media DMEM with 10% FBS and 1% pen/strep) and incubated at 37° C. with 5% CO2. After overnight incubation, 200 μL of INF-gamma (50 ng/ml in growth media) was added to the plate and returned to incubator for another 48 hr. SepMater™-50 centrifuge tube was used to isolate PBMC from human donor according to manufacture's instruction (Stemcell). The CD3 T cell was then isolated from the PBMC using EasySep Human T cell isolation kit (Stemcell). Wash the 96-well plat twice with 200 μL of co-culture media (RPMI-1640+10% FBS+1% Pen/strep). Adjust the CD3 T cells density to 5×10^5 cells/ml with high dose anti-CD3/CD28 beads and co-culture medium (RPMI-1640+10% FBS+1% Pen/strep) and seed 200 μL/well into 96-well plate. Compound at different concentration was added to each well and the plate was incubated for a further 72 hr. Level of INF-gamma in the co-culture media (100 μL) was analyzed using the Human IFN-gamma ELISA Ready-SET-GO kit from eBioscience.

Consider `CC(C)CN(CC(C)C)c1ccc(C2(C(=O)O)CCCC2)cc1NC(=O)Nc1ccc(F)cc1F` [Compound 9, 1-[4-[bis(2-methylpropyl)amino]-3-[[(2,4-difluorophenyl)carbamoyl]amino]phenyl]cyclopentane-1-carboxylic acid], for which the “Human Hepatocyte Remaining Percentage @ 120 min” value in the series with pooled human hepatocytes (pooled human hepatocytes) is on record as 79. In series [1], the CLint scaled at 1 µM was determined as 10 mL/min/kg, the hepatocyte CLint at 1 µM stood at 3 µL/min/1e6 cells and the half-life at 1 µM amounted to 423 min. This compound also yielded an IC50 in series [2] (Homo sapiens, SK-OV-3, FIG. 1) of 7.4 nM. Besides, in series [3] (Homo sapiens, HeLa), the IC50 stood at 2.2 nM. Further, the “drop of plasma kynurenine compared to the LPS treatment alone” value in series [4] (12 hour time point) was found to be 72%. The “drop of plasma kynurenine compared to the LPS treatment alone” value in series [4] (24 hour time point) worked out at 85%.

`CCN(c1ncc(C2(C(=O)O)CCC2)cc1Nc1ccc(Cl)cc1)C1CCOCC1` [Compound 120]: the “Human Hepatocyte Remaining Percentage @ 120 min” value in the series on pooled human hepatocytes (pooled human hepatocytes) worked out at 94. Besides, in series [1], the CLint scaled at 1 µM stood at 3.5 mL/min/kg, the hepatocyte CLint at 1 µM is 1.4 µL/min/1e6 cells and the half-life at 1 µM was 1020 min. In series [3] (Homo sapiens, HeLa), the IC50 was determined as 0.1 nM. In addition, the 50% effective concentration (EC50) in series [5] (Homo sapiens) stood at 9.1 nM.

Turning to `NS(=O)(=O)NCCNc1nonc1/C(=N/O)Nc1ccc(F)c(Br)c1` [INCB-24360, reference compound], in the series with pooled human hepatocytes (pooled human hepatocytes), the “Human In vitro Clint (μL/min/10^6 cells)” value stood at 19 μL/min/10^6 cells, the “Human In vitro T1/2” value is recorded as 73 min and the “Human Hepatocyte Remaining Percentage @ 120 min” value is recorded as 35. In the series on pooled human hepatocytes (scaled up from in vitro t1/2, scaling factor 2544.3), the “Human Scale-up Clint” value is 48 mL/min/kg. Also, the IC50 in series [2] (FIG. 1) was 10.2 nM. In addition, the IC50 in series [3] was 6.9 nM. Further, in series [5], the EC50 was 41 nM.
